We go through nine molecules from patent US20220386608A1, “INSECTICIDAL MIXTURES OF BIFENTHRIN AND CHLORANTRANILIPROLE” (priority 2019, published 2022).

Holding throughout (assay type): in vivo
For one data set, the system named is C. includens. Kind of data set: Example 5A, protocol A: mortality on treated leaves, synergy by Colby equation. The conditions noted are these: for Mortality: mean mortality after 96 hours, substance and dose g a.i./ha per treatment number of Table 5B. As for the experimental part:
(§1) Ratios of bifenthrin to chlorantraniliprole were evaluated on various crops and target pests as indicated in the protocol disclosed Table 5A below where “Lab.” Refers to laboratory, “No. of Treat.” refers to number of treatments, and Total refers to the total number of insects tested. In each evaluation, foliar application was done, the insecticide action was contact/ingestion and 32 insects were evaluated in each treatment.
(§2) The treatment schedule shown in Table 5B was used where “dose” refers to application rate, “ratio” refers to the ratio of bifenthrin to chlorantraniliprole on an a.i. basis.
(§3) Treatments were applied inside a sprayer chamber simulating a volume of 200 l/ha over soybean plants. After a drying period, treated leaves were removed from the plants and placed inside 16 well trays containing agar solution (2%) covered with filter paper. Two 16 well trays were prepared for each treatment (32 larvae/treatment). One 3rd instar larva from laboratory strains was placed in each well over the treated leaf. Trays were kept under controlled conditions of 25° C., photoperiod of 14:10 hours, and 60% RH. Morality was evaluated after 96 hours. Mortality is defined as dead and moribund larvae.
(§4) Synergy or antagonism was determined using the Colby Equation where: […]
(§5) X is the observed result for compound A at p grams a.e./ha. Y is the observed result for compound B at q grams a.e./ha. E is the expected result for a mixture of A and B at (p+q) g a.i./ha if there is no synergy or antagonism. If the observed value for the combination of A and B is greater than E (Obs>E) then synergy is indicated. If the observed value for the combination of A and B is less than E (Obs<E) then antagonism is indicated.
Morality on C. includens was evaluated according to protocol A (refer to Table 5B) using treatment numbers 5.1, 5.3, 5.5 to 5.8 and 5.10 to 5.13 (refer to Table 5B). The results are reported in Table 5C below where mortality is the mean mortality, the E value was calculated by the Colby equation, and the synergy value is determined by dividing the mean mortality (%) by the expected value (E).

A further data set deals with H. armigera. Kind of data set: Example 5B, protocol B: mortality on treated leaves, synergy by Colby equation. Conditions: for Mortality: mean mortality after 96 hours, substance and dose g a.i./ha per treatment number of Table 5B. The protocol:
as §1, §2, §3, §4, §5
Morality on H. armigera was evaluated according to protocol B (refer to Table 5B) using treatment numbers 5.1 to 5.13 (refer to Table 5B).

Data set [1] deals with S. frugiperda laboratory strain (susceptible). Kind of data set: Example 5C, protocol G: mortality on treated leaves, synergy by Colby equation. The conditions noted are these: 96 hours, substance and dose g a.i./ha per treatment number of Table 5B. The protocol:
as §1, §2, §3, §4, §5
(§6) Morality on S. frugiperda was evaluated according to protocols G and H (refer to Table 5B), but where two S. frugiperda strains were tested: a laboratory strain (susceptible) and a field strain in F3 generation sampled in the 2018/2019 season in Sinop-MT region using treatment numbers 5.1 to 5.10 (refer to Table 5B). The results are reported in Tables 5E (Laboratory Strain) and 5F (Filed Strain).

Data set [2] relates to S. frugiperda field strain. Kind of data set: Example 5C, protocol H: mortality on treated leaves, synergy by Colby equation. Conditions: for Mortality: field strain, 96 hours, substance and dose g a.i./ha per treatment number of Table 5B. The protocol:
as §1, §2, §3, §4, §5, §6

The subject of data set [3] is E. heros 3rd instar nymphs. Kind of data set: Example 5D, protocol C: mortality on sprayed soybean plants after 72 hours, synergy by Colby equation. The conditions noted are these: for Mortality: E. heros 3rd instar nymphs, sprayed soybean plants (V2), after 72 hours, Table 5G. The protocol: as §1, §2, §4, §5
(§7) Morality on E. heros was evaluated according to protocols C and D (refer to Table 5B). In the evaluation method, insecticides (treatment numbers 5.1, 5.3, 5.5 to 5.8 and 5.10 to 5.13 (refer to Table 5B)) were applied over soybean plants at V2 stage inside a spray chamber. After a drying period, a first portion of the plants were infested with 10 3rd instar nymphs of E. heros per plant, with three repetitions per treatment with a total of 30 nymphs per treatment. After the drying period, a second portion of the plants were infested with 10 adults of E. heros per plant, with three repetitions per treatment with a total of 30 adults per treatment. Infested plants were maintained in a greenhouse controlled at a temperature of 26° C. Mortality was evaluated after 72 hours. The results are reported in Tables 5G (nymphs) and 5H (adults).

A further data set concerns E. heros adults. Kind of data set: Example 5D, protocol D: mortality on sprayed soybean plants after 72 hours, synergy by Colby equation. Set-up: concentration or dose not given beside the values. Conditions: sprayed soybean plants (V2), Table 5H. As for the experimental part:
as §1, §2, §4, §5, §7

The test system of data set [4] is D. melachantus 3rd instar nymphs. Kind of data set: Example 5E, protocol E: mortality on sprayed plants after 72 hours, synergy by Colby equation. Set-up: Mortality: concentration or dose not given beside the values. Conditions: for Mortality: D. melachantus nymphs, sprayed plants, after 72 hours, Table 5I. The protocol: as §1, §2, §4, §5, §7
(§8) Morality on D. melachantus was evaluated according to protocols E and F (refer to Table 5B). In the evaluation method, insecticides (treatment numbers 5.1, 5.3, 5.5 to 5.8 and 5.10 to 5.13 (refer to Table 5B)). Evaluation was done according to the method of Example 5D. The results are reported in Tables 5I (nymphs) and 5J (adults).

Another data set concerns D. melachantus adults. Kind of data set: Example 5E, protocol F: mortality on sprayed plants after 72 hours, synergy by Colby equation. Set-up: concentration or dose not given beside the values. Conditions: Table 5J. The protocol:
as §1, §2, §4, §5, §7, §8

Consider `CNC(=O)c1cc(Cl)cc(C)c1NC(=O)c1cc(Br)nn1-c1ncccc1Cl` [Treatment 5.3, Chlorantraniliprole], for which the Mortality is 100% in the data set on C. includens; 100% in the data set on H. armigera (listed as 5.3); 100% in data set [1] (listed as 5.3); 59.4% in data set [2] (listed as 5.3); 0% in data set [3]; 3.3% with E. heros adults. For the same molecule, the Mortality in data set [4] worked out at 7.0%; in the data set on D. melachantus adults, 0%.

For `Cc1c(COC(=O)[C@@H]2[C@H](/C=C(\Cl)C(F)(F)F)C2(C)C)cccc1-c1ccccc1` (racemic) [Bifenthrin, 2-methylbiphenyl-3-ylmethyl (Z)-(1RS)-cis-3-(2-chloro-3,3,3-trifluoroprop-1-enyl)-2,2-dimethyl cyclopropanecarboxylate], the “H. armigera control, in words” value with H. armigera (even at a higher dose of 60 g a.i./ha, resistance to pyrethroids) was “lower control”. Also, in data set [2] (lower doses, especially on the field strain), the “control of S. frugiperda, in words” value is “lower control”.

For the molecule `Cc1c(COC(=O)[C@@H]2[C@H](/C=C(\Cl)C(F)(F)F)C2(C)C)cccc1-c1ccccc1` (racemic) [Treatment 5.6, Bifenthrin], the Mortality in the data set on C. includens (listed as 5.6) was found to be 68.8%; in the data set on H. armigera (listed as 5.6), 0%; in data set [1] (listed as 5.6), 78.1%; in data set [2] (listed as 5.6) it was 15.6%; in data set [3] (listed as 5.6), 43.3%; in the data set on E. heros adults (listed as 5.6) it was 30.0%. In addition, the Mortality (in data set [4] (listed as 5.6); in the data set with D. melachantus adults (listed as 5.6)) was 70.0% in each case.

Take `CNC(=O)c1cc(Cl)cc(C)c1NC(=O)c1cc(Br)nn1-c1ncccc1Cl` [Chlorantraniliprole, 5-bromo-N-[4-chloro-2-methyl-6-(methylcarbamoyl)phenyl]-2-(3-chloropyridin-2-yl)pyrazole-3-carboxamide]: in the data set with C. includens (7.5 g a.i./ha), the “control of C. includens, in words” value is listed as “most effective”. In addition, the “H. armigera control, in words” value with H. armigera (7.5 g a.i./ha) is “most effective”. Also, in data set [3] (nymphs and adults (protocols C and D)), the “control of E. heros, in words” value was “did not control”. The “control of D. melacanthus, in words” value in data set [4] (nymphs and adults (protocols E and F)) is “did not control”.

For the molecule `Cc1c(COC(=O)[C@@H]2[C@H](/C=C(\Cl)C(F)(F)F)C2(C)C)cccc1-c1ccccc1` (racemic) [Treatment 5.8, Bifenthrin], the Mortality is 78.1% in the data set with C. includens (listed as 5.8); 9.4% in the data set on H. armigera (listed as 5.8); 93.8% in data set [1] (listed as 5.8); 43.8% in data set [2] (listed as 5.8); 85.2% in data set [3] (listed as 5.8); 80.0% in the data set with E. heros adults (listed as 5.8). For the same molecule, the Mortality (in data set [4] (listed as 5.8); in the data set on D. melachantus adults (listed as 5.8)) was 100% in each case.

On to `CNC(=O)c1cc(Cl)cc(C)c1NC(=O)c1cc(Br)nn1-c1ncccc1Cl` [Treatment 5.2, Chlorantraniliprole], for which the Mortality is on record as 84.4% in the data set on H. armigera (listed as 5.2), 96.9% in data set [1] (listed as 5.2) and 40.6% in data set [2] (listed as 5.2).

Turning to `Cc1c(COC(=O)[C@@H]2[C@H](/C=C(\Cl)C(F)(F)F)C2(C)C)cccc1-c1ccccc1` (racemic) [Treatment 5.4, Bifenthrin], the Mortality is 0% in the data set on H. armigera (listed as 5.4), 34.4% in data set [1] (listed as 5.4) and 3.1% in data set [2] (listed as 5.4).

In the case of `Cc1c(COC(=O)[C@@H]2[C@H](/C=C(\Cl)C(F)(F)F)C2(C)C)cccc1-c1ccccc1` (racemic) [Treatment 5.5, Bifenthrin], the Mortality was 34.4% in the data set with C. includens (listed as 5.5); 0% with H. armigera (listed as 5.5); 53.1% in data set [1] (listed as 5.5); 3.1% in data set [2] (listed as 5.5); 38.9% in data set [3] (listed as 5.5); 3.3% in the data set on E. heros adults (listed as 5.5). Moreover, the figures for the Mortality (in data set [4] (listed as 5.5); in the data set with D. melachantus adults (listed as 5.5)) were 56.7% and 39.3%, respectively.

Turning to `Cc1c(COC(=O)[C@@H]2[C@H](/C=C(\Cl)C(F)(F)F)C2(C)C)cccc1-c1ccccc1` (racemic) [Treatment 5.7, Bifenthrin], the Mortality is on record as 78.1% in the data set with C. includens (listed as 5.7); 0% in the data set on H. armigera (listed as 5.7); 96.9% in data set [1] (listed as 5.7); 43.8% in data set [2] (listed as 5.7); 76.7% in data set [3] (listed as 5.7); 56.7% in the data set with E. heros adults (listed as 5.7). In addition, the Mortality (in data set [4] (listed as 5.7); with D. melachantus adults (listed as 5.7)) was 100% throughout.
